According to EP1655608A1, “CFTR as a component of an autophagy signaling pathway, applications thereof to autophagic diseases, and determination of cystic fibrosis as an autophagic disease” (priority 2004, dated 2006):

Key:
p38 = conditions: Lindane-treated cells; ref (38); cited from earlier work
Sertoli cells = experiment: Cell death and apoptotic features in Lindane-treated Sertoli cells; assay type: cell-based, mouse
Procedure: Autophagy was induced either by starvation or by treatment with Lindane under nutrient-rich condition. For Lindane treatment, cells were serum-starved for 2-16 hours in DMEM/Ham's F12 (1:1, GIBCO #61965-026: F12 GIBCO #31765-027) supplemented with either 1% Insulin-Transferrin-SeleniumA (GIBCO #51300-044) or 0.1% bovine serum albumin (A7030, Sigma) and treated with Lindane (50 µM, Sigma, H4500).
The ultrastructural changes caused by Lindane or starvation in Sertoli and renal cells were analysed by transmission electron microscopy, as previously described (57). […] Cell pellets were then rinsed in cacodylate buffer, postfixed in 1% OsO4 for 1 h at 4°C, dehydrated through graded ethanol washes, and embedded in epoxy resin. Oriented […] sections were obtained with diamond knives, and representative areas were chosen for ultra-thin sectioning. Thin […] sections were mounted on copper mesh grids, stained with uranyl acetate and lead citrate, and examined on a JEOL 1200 EXII electron microscope. 30-50 micrographs were taken randomly from each sample at primary magnification × 10,000.

PKA = experiment: CREB phosphorylation as readout of PKA activity; assay type: cell-based
From the text: The emerging issue is therefore how Lindane could activate CFTR Cl^- currents. One possibility would be that Lindane directly activates CFTR, but this appears unlikely because it required minutes instead of seconds to increase Cl^- conductance. […] To further explore this hypothesis, we tested the effect of Lindane on the renal proximal cell line (PCT1). […] Of particular interest, we provide several lines of evidence that the CFTR Δex10 channels remained functional in response to Lindane in PCT cells. […] These finding provide the first evidence that an agonist, e.g. Lindane, could activate CFTR Cl- current independently of PKA, raising the promise for new strategies using Lindane to restore Cl-conductance in cystic fibrosis patients with CFTR variants on PKA sites.

SMILES: Cl[C@H]1[C@H](Cl)[C@@H](Cl)[C@@H](Cl)[C@H](Cl)[C@H]1Cl [Lindane, γ-hexachlorocyclohexane]
- activation of Jun kinases or p38 (p38): not activated
- dead cells (Sertoli cells; Lindane 50 µM): little if any dead cells
- propidium iodide staining of vacuolated cells (Sertoli cells; Lindane 50 µM, late stages): did not stain with propidium iodide
- apoptotic features (caspase 3 activation, PARP cleavage, chromatin condensation, nuclear pyknosis, mitochondria degeneration) (Sertoli cells; Lindane-treated cells): absence of several apoptotic morphological and biochemical features
- cell lysis on longer exposure (Sertoli cells; exposure for four days): not associated with cell lysis
- CREB phosphorylation (PKA; Lindane treatment): dramatic phosphorylation of CREB
- PKA activation (PKA; concluded from H89 experiment): did not activate PKA
